“Also recorded” adds a separate entry of the source.
Columns and labels:
healthy donor T cells = experiment: IFNγ ELISA of healthy donor T cells stimulated with peptide loaded autologous DCs; assay type: cell-based, human; conditions: for IFNγ responses following stimulation with autologous DCs loaded with wild type peptide: in one of three normal donors tested; for IFNγ production from normal donor T cells: modified peptides P11-P16, six normal donors
Description: PBMCs were prepared from healthy donor buffy coats as described above. Monocytes were obtained from newly sourced buffy coats, or cells thawed at 10^6/ml in warm X-VIVO medium, 1% human AB serum and plated in 90 mm TC dishes. Plates were incubated at 37° C. for at least 4 hours and non adherent cells removed by gently washing with media or HBSS or CD14^+ cells were positively selected as described. The remaining T cell enriched cells were cryopreserved for use as effectors in later assays. The CD14^+ fraction/adherent cells were cultured in IL-4 (1000 IU/ml) and GM-CSF (800 U/ml) for 5 days to induce differentiation to a dendritic cell (DC) phenotype. On day 3 fresh IL-4 and GM-CSF were added. On day 5 TNFα (10 ng/ml), IL-6 (1000 U/ml) and IL-1β (10 ng/ml) all from R&D systems UK and PGE2 (1 μg/ml) (from Sigma, UK) were added to plates. On day 6 DCs were harvested from plates and washed with HBSS to remove residual cytokines before use in immunological experiments. Analysis of DC phenotype was carried out by flow cytometry.
IL-2 and IFNγ levels were determined with Duo set ELISA Development System (R&D Systems), according to the manufacturer's instructions. Supernatants were collected at various time points (days 3, 7, 10 and 14) in order to detect peak cytokine levels.
(§1) After 24 hours in maturation cytokines, DCs were incubated with peptide (50 μg/ml) for 4 hours. PBMCs or CD3^+ cells from healthy donors or patients with solid tumours were seeded into a 12-well plate, in X-VIVO 15 at a density of 2×10^6/ml. Peptide pulsed, monocyte derived DCs were washed and prepared at 2×10^5/ml. PBMC cultures received peptide pulsed DCs at a stimulator:effector ratio of […], or in the case of unstimulated controls, medium only. IL-7 was added to cultures at a final concentration of 10 U/ml on day 3. Cultures were restimulated by addition of peptide pulsed DCs on, day 7, and in some cases day 14, together with IL-7 and IL-2 (both at 10 U/ml). 200 μl of culture supernatants were collected at various intervals throughout the culture period and replaced with fresh medium. In the case of AML patient cultures, T2 cells were pulsed with peptide and used as stimulators in the same way as autologous DCs described above. Culture supernatants were analysed for IFNγ content by ELISA. After the 2-3 week culture period, stimulated effector cells were washed and analysed by pentamer staining, intracellular cytokine staining or ELISPOT assays.

HHD mice = experiment: Mouse IFNγ-ELISpot after pDOM-epitope DNA vaccination
Description: HHD mice at 6 to 10 weeks of age were injected intramuscularly (i.m.) into both quadriceps with a total of 50 μg DNA in saline solution on day 0. Unless stated otherwise mice were boosted with the same DNA vaccine delivered with in vivo electroporation on day 28 as previously described^5.
Vaccine-specific IFNγ secretion by lymphocytes from individual mice was assessed ex vivo (BD ELISpot Set, BD PharMingen, San Diego, Calif.) on day 14 or 36, as described previously with some modifications^11. Briefly, viable lymphocytes were selected from splenocyte preparations by density centrifugation. […] Data are expressed as the frequency of spot-forming cells (SFCs) per million lymphocytes. For analysis of peptide-specific T-cell sensitivity, splenic lymphocytes from immunized mice were incubated with a range of PASD1 peptide concentrations and the frequency of specific cells assessed by ELISpot analysis as described. The number of SFC/million cells at the peptide concentration inducing the greatest response was assigned a value of 100%. For each peptide concentration tested the % maximal response was then calculated by the formula: (experimental SFCs per million cells/maximal SFCs per million cells)×100% for each individual animal.

patient CD8+ T cells = experiment: pMHC tetramer array with unstimulated patient CD8+ T cells; assay type: cell-based, human
Description: FIG. 11: pMHC arrays. pMHC molecules were folded into tetramers using either streptavidin alone or AlexaFluor 532 (Molecular Probes) conjugated to streptavidin. Tetramers were spotted onto hydrogel slides using a contact deposition-type printer (Genetix), at a concentration of 0.5 mg/ml in 2% glycerol. Printed arrays were immobilised for 48 hours and stored at 4° C. until use. (FIG. 11 i) CD8+ T cells were negatively isolated from normal donor buffy coats obtained from National Blood Service UK or patient samples from the Department of Haematology, Southampton General Hospital following informed consent using EasySep isolation kits. […] Excess culture medium was removed before slides were analysed on the ProScanArray (PerkinElmer). […] Negatively isolated CD8+ T cells were labelled with CD8-FITC (FL1-H) and pMHC-SAPE (FL2-H) and analysed by flow cytometry using the FACScalibur™. […]
FIG. 12: Analysis of patient samples. […] Positives were only scored where at least 3 of 9 spots had T cells stuck to them and this occurred in both sets of spots in independent locations on the array. […]
In short, pMHC molecules were folded into tetramers using streptavidin alone or streptavidin conjugated to AlexaFluor 532 (Molecular Probes). […] Excess culture medium was removed before slides were analysed on the ProScanArray (PerkinElmer). […]

patient T cells = experiment: IFNγ secretion by patient T cells following in vitro peptide stimulation; assay type: cell-based, human; conditions: for Specific IFNγ secretion by ELISpot: colon cancer patient T cells stimulated with peptide
Description: FIG. 4. IFNγ secretion by patient T cells following in vitro stimulations. (A) IFNγ levels in peptide stimulated cultures from AML patients (same as shown in FIGS. 3 B and E) as measured by ELISpot assays. […] Graphs show IFNγ levels at day 10 (y-axis).
as §1
(§2) The T2 line was first examined for immune stimulatory molecules by FACS analysis. […] T2 cells were cultured in serum free conditions to reduce the non-human antigens present in the FCS. T2 cells were incubated with peptide for 4 hours, washed and irradiated and seeded in 96 well plates. Purified T cells (Miltenyi) from patients were added and IFNγ secretion or the expansion of CD8^+ epitope specific T cells measured using pentamers.

healthy donor CD3+ cells = experiment: Intracellular IFNγ staining of peptide stimulated CD3+ cultures; assay type: cell-based, human; conditions: after three stimulations, CD4 or CD8 co-staining
Description: For detection of IFNγ, Brefeldin A was added to T cells 12 hours prior to intracellular staining, to a final concentration of […]. Effector cells were washed with PBS and stained with CD8-PE or CD4-PE antibody for 30 minutes at room temperature. Stained cells were then washed twice with HBSS, and resuspended in the residual volume. 100 μl of fixation solution (Caltag Laboratories, UK) was added to each tube and samples incubated for 15 minutes at room temperature. Cells were then washed with cold HBSS, 1% FBS 0.1% sodium azide and resuspended in the residual volume. 100 μl of permeabilisation medium (Caltag Laboratories) and 5 μl of IFNγ-FITC was added to each tube, and incubated for 20 mins at room temperature. Finally, cells were washed and resuspended in 300-500 μl HBSS ready for FACS analysis. All antibodies and isotype controls were purchased from (Becton Dickinson, Oxford, UK) except HLA-A2 (from Serotec).
After 24 hours in maturation cytokines, DCs were incubated with peptide (50 μg/ml) for 4 hours. PBMCs or CD3^+ cells from healthy donors or patients with solid tumours were seeded into a 12-well plate, in X-VIVO 15 at a density of 2×10^6/ml. […] Culture supernatants were analysed for IFNγ content by ELISA. After the 2-3 week culture period, stimulated effector cells were washed and analysed by pentamer staining, intracellular cytokine staining or ELISPOT assays.

[1] = test system: solid tumour patient CD8+ T cells; experiment: Pentamer staining, solid tumour patient CD3+ T cells stimulated with peptide loaded autologous DCs; assay type: cell-based, human; conditions: for Pentamer positive cells, frequency of CD8+ cells: absence of peptide stimulation; for Pentamer positive cells, frequency of the CD8+ population: after peptide stimulation (P15: three rounds)
Description: (§3) Assessment of peptide specific T cells was carried out by staining 10^6 effector cells with 10 μl of PE labeled, HLA-A*0201 pentamers (custom made by Proimmune) for 10 minutes, at room temperature, in the dark. Cells were then washed and co-stained with CD8-FITC for 20 minutes at room temperature. The lymphocyte gate was selected according to FSSCH/SSCH and 50,000 events acquired. Staining with control pentamers was carried out for each sample.
as §1
There have been no reports of PASD1 expression in primary head and neck, prostate or colon cancer primary cells to date, but the head and neck cancer cell line Hn5^19, the lung cancer line H1299^19 and the colon cancer cell line SW480^24 are PASD1 positive. This raises the possibility that some solid cancer patients may be able to raise a response to the PASD1 peptides. Cells used in these experiments were isolated from leukophoresis samples taken several months after the cessation of treatment. Negatively purified CD3^+ T cells were stimulated with autologous monocyte derived DCs as described previously. Pentamer analysis was carried out after each stimulation.

[2] = test system: healthy donor CD8+ T cells; experiment: Pentamer staining, healthy donor CD3+ cells stimulated with peptide pulsed DCs; assay type: cell-based, human; conditions: two of four normal donors, after four stimulations
Description: as §3
as §1, with “200 μl of culture supernatants were collected at various intervals throughout the culture period and replaced with fresh medium. In the case of AML patient cultures, T2 cells were pulsed with peptide and used as stimulators in the same way as autologous DCs described above.” left out, “assays. […]” for “assays.”

AML patient CD8+ T cells = experiment: Pentamer staining, AML patient CD3+ T cells stimulated with peptide loaded T2 cells; assay type: cell-based, human; conditions: for P14 pentamer positive cells of the CD8+ cells: after P14 peptide stimulation; for Pentamer positive cells, frequency of the CD8+ cells: after two rounds of ex vivo stimulation
Description: as §3, §1, §2
Prior to each restimulation, cells were resuspended and aliquots taken for pentamer staining.

peptide loaded targets = assay type: cell-based
[3] = prostate cancer patient, up to four stimulations

P4: wild type PASD1 nonamer, SEQ ID NO. 1 (LQNPRDVSV; listed as Homo sapiens)
IFNγ responses following stimulation with autologous DCs loaded with wild type peptide (healthy donor T cells): generated some IFNγ responses

P8: wild type PASD1 peptide, SEQ ID NO. 9, PASD1 691-699 (RLWQELSDS; listed as Homo sapiens)
IFNγ secretion (ELISpot) against the peptide of the immunisation (HHD mice; HHD mice, prime only, 14 days later): does not
IFNγ responses following stimulation with autologous DCs loaded with wild type peptide (healthy donor T cells): generated some IFNγ responses

P9: wild type PASD1 nonamer, SEQ ID NO. 11 (KLQERKKWQ; listed as Homo sapiens)
IFNγ responses following stimulation with autologous DCs loaded with wild type peptide (healthy donor T cells): generated some IFNγ responses

P14: modified PASD1 peptide, SEQ ID NO 21, derivative of wild type peptide P8 (RLWQELSDI; Synthetic sequence amino acid sequence p14)
IFNγ secretion (ELISpot) against the peptide of the immunisation (HHD mice; mouse, in vivo): leads to an IFNγ response
HLA-A2 positive ALL and CML patients with P14-specific T cells (patient CD8+ T cells; 1 ALL and 1 CML HLA-A2 positive patient): neither
HLA-A2 positive AML patients with P14 specific T cells on the pMHC array (patient CD8+ T cells; at presentation, no prior ex vivo stimulation): two of four
IFNγ secretion by expanded P14-specific T cell populations (patient T cells; AML Patient I and II): IFNγ was secreted
Specific IFNγ secretion by ELISpot (patient T cells): detectable
Phenotype of the IFNγ secreting cells (healthy donor CD3+ cells): IFNγ secreting cells were CD8+
P14 pentamer positive cells, frequency of the CD8+ T cell population ([1]; colon cancer patient, fourth stimulation): 13.6%
P14 pentamer positive cells, frequency of CD8+ cells ([1]; colon cancer patient, stimulation with DCs alone, corrected for control pentamer): 0.09%
P14 pentamer positive cells, frequency of CD8+ T cells ([1]; colon cancer patient, three rounds of P14 peptide stimulation): 0.11%
Pentamer positive cells, frequency of CD8+ cells ([1]; head and neck patient): 0.02%
Pentamer positive cells, frequency of the CD8+ population ([1]; head and neck patient): not expanded
Pentamer positive cells [1, 3]: No pentamer positive cells were detected
Pentamer positive T cells [2]: small population
Secretion of IFNγ in cultures of CD4+ depleted effector cells (healthy donor T cells): almost completely abolished
IFNγ production from normal donor T cells (healthy donor T cells): highest levels
Pentamer positive cells (AML patient CD8+ T cells; AML Patient 3 (remission) and Patient 4 (non remission), after three stimulations): no pentamer positive cells were detected
P14 pentamer positive cells of the CD8+ cells (AML patient CD8+ T cells; AML Patient I): 0.5%
P14 pentamer positive cells of the CD8+ cells (AML patient CD8+ T cells; AML Patient II): 0.09%
Pentamer positive cells, frequency of the CD8+ T cells (AML patient CD8+ T cells; AML patients, absence of peptide stimulation): not detectable above background levels; also recorded: undetectable
Pentamer positive cells, frequency of the CD8+ cells (AML patient CD8+ T cells; AML patients): 0.02%

P15: PASD1 peptide analogue with a single amino acid change, PASD1 587-595 (LINPRDVSV)
Killing of peptide loaded targets (CTL assay) (peptide loaded targets): did not occur
Specific IFNγ secretion by ELISpot (patient T cells): not
Pentamer positive cells, frequency of CD8+ cells ([1]; head and neck patient): same low frequency
Pentamer positive cells, frequency of the CD8+ population ([1]; head and neck patient): 0.06%
Pentamer positive cells ([1]; head and neck patient, fourth stimulation): did not expand this further
Pentamer positive cells [1, 3]: No pentamer positive cells were detected
Pentamer positive T cells [2]: small population
Secretion of IFNγ in cultures of CD4+ depleted effector cells (healthy donor T cells): almost completely abolished
IFNγ production from normal donor T cells (healthy donor T cells): highest levels
Pentamer positive cells, frequency of the CD8+ cells (AML patient CD8+ T cells; AML patients): 0.02%

P16: PASD1 peptide analogue with a single amino acid change, PASD1 587-595 (LVNPRDVSV)
Killing of peptide loaded targets (CTL assay) (peptide loaded targets): did not occur
Secretion of IFNγ in cultures of CD4+ depleted effector cells (healthy donor T cells): almost completely abolished
IFNγ production from normal donor T cells (healthy donor T cells): highest levels

From patent US20110212116A1, “IMMUNOGENIC PEPTIDES AND USES THEREOF” (Cancer Research Technology Limited, priority 2008, published 2011)
